{"source": "patent US8637043B2", "about": "“Compositions useful as ligands for the formyl peptide receptor like 1 receptor and methods of use thereof” (Chemocentryx, Inc., priority 2001, dated 2014)", "key": {"[1]": {"tested_on": "OVA-specific antibody", "test": "OVA-specific antibody responses with IFA or alum adjuvant in Rhesus monkeys (Example 18)", "format": "in vivo", "method": "First, 96-well U-bottom plastic dishes were coated overnight with 1 μg ovalbumin (OVA) in 100 μl PBS per well. The next day, the dishes were rinsed with PBS, blocked with PBS containing 5% fetal bovine serum (FBS), and rinsed with PBS again. Plasma samples from experimental animals (see below) were diluted 10^2- to 10^5-fold and added to the dishes for 2 hours, after which the dishes were again rinsed with PBS. The dishes were then incubated with biotinylated goat anti-monkey IgG detection antibodies, then rinsed with PBS and incubated with streptavidin-linked horseradish peroxidase (SA-HRP). After a final rinsing with PBS, the HRP substrate 2,2′-Azinobis [3-ethylbenzothiazoline-6-sulfonic acid]-diammonium salt was added.\nDifferent types of immune responses can be induced in mammals by varying parameters such as the dose of antigen, the formulation, the route of administration, and the type of adjuvant."}, "[2]": {"tested_on": "dendritic cells", "test": "Dendritic cell infiltration after intradermal injection in mice (anti-DEC-205 staining)", "format": "in vivo", "design": "key to Dendritic cell infiltration Score / Infiltration Score: 0 = none, 1 = slight, 2 = mild, 3 = moderate, 4 = severe", "source_text": "The following chemokines were obtained from R&D Systems (Minneapolis, Minn.): vMCK-2, mC10, and GM-CSF. The following peptides were synthesized at Phoenix Pharmaceuticals (San Carlos, Calif.): SHAAYtide (SEQ ID NO:6), several […] MODIFIED peptides of SHAAGtide variant (SEQ ID NO:) (i.e. cyclized using the MPR-Cys linked cyclization), control peptide (SEQ ID NO:33, […]Gin Pro Gly lie Lys Arg Arg Trp Leu Met), randomly conjugated to OVA in either a 1:1 or 1:4 ratio (by MBS coupling method), and conjugated to OVA at the C-terminus (C-term, made by the addition of a cysteine), and SHAAGtide variant (SEQ ID NO:3). In three separate experiments, chemokines or peptides (2 μg or 20 μg in PBS) were injected intradermally into BALB/c or C57BI/6 mice (Jackson Laboratory; Bar Harbor, Me.). In each experiment, one mouse received an injection of PBS only as a negative control. At various times after injection, the mice were euthanized, and the area around the injection site was excised and subjected to immunohistology. Frozen sections were stained with anti-DEC-205 antibody (Bio-Whittaker Molecular Applications; Rockland, Me.) that recognizes a dendritic cell-specific molecule (Kraal et al., 1986). A relative staining number on a scale of […] was assigned to each section (0, none; 1, slight; 2, mild; 3, moderate; 4, severe)."}, "[3]": {"target": "T1, CCR1 (Homo sapiens, UniProt P32246)", "T1 construct": "full length cDNA encoding CCR1 was cloned by the polymerase chain reaction (PCR) from genomic DNA isolated from human peripheral blood cells; expressed in transfected cells; pcDNA3.1 vector)", "T1 sequence (P32246 1-355)": "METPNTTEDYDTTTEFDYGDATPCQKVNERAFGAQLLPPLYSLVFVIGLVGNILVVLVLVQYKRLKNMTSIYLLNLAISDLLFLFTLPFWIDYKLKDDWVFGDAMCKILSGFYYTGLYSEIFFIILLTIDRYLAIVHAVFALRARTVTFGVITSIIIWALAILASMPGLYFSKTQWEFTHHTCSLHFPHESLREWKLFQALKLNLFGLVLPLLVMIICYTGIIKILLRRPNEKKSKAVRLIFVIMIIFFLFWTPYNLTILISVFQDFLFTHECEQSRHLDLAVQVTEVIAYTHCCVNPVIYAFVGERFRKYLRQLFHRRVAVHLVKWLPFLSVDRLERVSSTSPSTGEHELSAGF", "test": "125I-MIP-1α binding competition, HEK293-CCR1 cells", "method": "The binding characteristics of CCL23 variants was compared in human CCR1 expressing cells. […] Reactions mixtures were aspirated onto PEI-treated GF/B glass filters using a cell harvester (Packard). The filters were washed twice (25 mM HEPES, 500 mM NaCl, 1 mM CaCl2, 5 mM MgCl2, adjusted to pH 7.1). Scintillant (MicroScint-10; 35 μl) was added to dried filters and the filiters counted in a Packard Topcount scintillation counter. Data were analyzed and plotted using Prism software (GraphPad Software, San Diego, Calif.)."}, "[4]": {"tested_on": "native L1.2 cells", "test": "Calcium flux in parental L1.2 cells or cells transfected with other chemokine receptors", "format": "cell-based, murine", "conditions": "pariental cells or cells transfected with other chemokine receptors", "source_text": "The functional activities of CKβ8-1 (25-116) were investigated in human FPRL1-L1.2 transfectants and in native L1.2 cells. Stable expression of formyl peptide-like receptor 1 (FPRL1) in L.1.2 cell was obtained as follows. Full length cDNA encoding FPRL1 was cloned, using the polymerase chain reaction (PCR), from genomic DNA isolated from undifferentiated HL-60 cells. The polymerase chain reaction product was cloned into pcDNA3.1 (Invitrogen, Carlsbad, Calif.) using standard molecular cloning procedures and completely sequenced to confirm identity. Twenty micrograms of the FPRL1/pcDNA3.1 construct were linearized by digestion with Bsm1 (New England Biolabs, Beverly, Mass.) and used to transfect the murine B cell line L1.2 as follows. Twenty five million cells were washed twice and resuspended in 0.8 ml of PBS. The cells were incubated for 10 min at room temperature with the linearized FPRL/pcDNA3.1 construct DNA and transferred to a 0.4-cm cuvette, and a single electroporation pulse was applied at 250 V, 960 μF. Electroporated cells were incubated for 10 min at room temperature and transferred to culture at 37° C. in RPMI supplemented with 10% FCS. […] After 2-3 weeks under drug selection, stable geneticin-resistant FPLR1 expressing cells were assessed for their ability to mobilize Ca^++ in response to SHAAGtide or CKbeta 8-1 at concentrations of 1 to 1000 nM. […]"}}, "note": "Values joined by “and” are separate entries in the source; they are usually repeats but may differ in a detail not shown here. Identical values can stand only once. Ends that are not written are not given here."}
{"molecule": "MLWRRKIGPQMTLSHAAY [SEQ ID NO: 6]", "values": [{"measurement": "effect of co-administration on the OVA with IFA response", "setting": "[1]; IFA adjuvant", "value": "did not diminish the OVA with IFA response"}, {"measurement": "effect of co-administration on the IgG response induced by OVA plus alum", "setting": "[1]; alum adjuvant", "value": "dramatically reduced the IgG response induced by OVA plus alum"}, {"measurement": "Dendritic cell infiltration Score", "setting": "[2]; BALBc mice, 2 μg, 6 hours, listed as SHAAYtide (SEQ ID NO: 6)", "value": "2 and 3"}, {"measurement": "Dendritic cell infiltration Score", "setting": "[2]; BALBc mice, 2 μg, 30 hours, listed as SHAAYtide (SEQ ID NO: 6)", "value": "3 and 2"}, {"measurement": "Dendritic cell infiltration Score", "setting": "[2]; BALBc mice, 20 μg, 6 hours, listed as SHAAYtide (SEQ ID NO: 6)", "value": "2 and 3"}, {"measurement": "Dendritic cell infiltration Score", "setting": "[2]; C57B1/6 mice, 2 μg dose, 6 hours, 0 none, 1 slight, 2 mild, 3 moderate, 4 severe, one animal per line", "value": 1}, {"measurement": "Dendritic cell infiltration Score", "setting": "[2]; C57B1/6 mice, 2 μg dose, 30 hours", "value": 0}, {"measurement": "Dendritic cell infiltration Score", "setting": "[2]; C57B1/6 mice, 2 μg dose, 51 hours", "value": 0}, {"measurement": "infiltration of DEC-205-labeled cells", "setting": "[2]; summary of Tables 15, 16 and 17", "value": "excellent infiltration"}]}
{"molecule": "CKβ8-1(1-116): alternatively spliced form of CKβ8, 116 amino acids, human recombinant chemokine (protein, listed as Homo sapiens) RVTKDAETEFMMSKLPLENPVLLDMLWRRKIGPQMTLSHAAGFHATSADCCISYTPRSIPCSLLESYFETNSECSKPGVIFLTKKGRRFCANPSDKQVQVCMRMLKLDTRIKTRKN", "values": [{"measurement": "fold less potency than CKβ8(1-99)", "setting": "[3]; displacement of bound 125I-MIP-1α from CCR1", "value": "3-4 fold"}]}
{"molecule": "CKβ8-1(25-116): novel NH2-terminal truncated form of CKβ8-1, SEQ ID NO: 16, human recombinant chemokine (protein, listed as Homo sapiens) MLWRRKIGPQMTLSHAAGFHATSADCCISYTPRSIPCSLLESYFETNSECSKPGVIFLTKKGRRFCANPSDKQVQVCMRMLKLDTRIKTRKN", "values": [{"measurement": "induced calcium release", "setting": "[4]", "value": "not observed"}, {"measurement": "IC50 increase of truncated variant versus full-length variant", "setting": "[3]; HEK293-CCR1", "value": "one fold"}]}
